Measured values published in patent US20240316202A1, “NOVEL PHOTOSENSITIZER” (The University of Tokyo, priority 2020, published 2024).

Assays:
[1] = Optical characteristics (UV-Vis absorption and fluorescence spectroscopy); type: physicochemical; conditions: physiological conditions
Protocol: UV-visible spectra were obtained with Shimadzu UV-1800. A fluorescence spectroscopic test was performed with Hitachi F7000.
The slit width in the fluorescence measurement was 1 nm for both excitation and light emission. The photomultiplier tube voltage was 400 V. The area under the light emission spectrum of the test sample and the spectral area of the standard sample were determined and calculated by the following equation to determine a relative fluorescence quantum yield (Φfl).
The optical characteristics of the probe (1 μM) were examined in a 0.1 M sodium phosphate buffer containing 0.1% DMSO as a co-solvent.
Therefore, it is expected that HMRIef in which iodine is introduced into the xanthene ring site of HMRef is also placed in the same equilibrium. […] In addition, a fluorescence spectrum was also measured. […]
FIG. 3(a) illustrates the chemical structure and optical characteristics of HMRIef. FIG. 3(b) illustrates the measurement results of the absorption spectrum and fluorescence spectrum of HMRIef (measurement was performed in a 0.1 M sodium phosphate buffer containing 0.1% DMSO as a co-solvent. dye concentration: 1 μM (absorption) or 10 μM (fluorescence)). FIG. 3(c) illustrates the measurement results of the absorption spectra measured in 0.1 M sodium phosphate buffers with various pH containing 0.1% DMSO as a co-solvent (dye concentration: 1 μM). […]

[2] = Detection of singlet oxygen by near infrared spectroscopy; type: physicochemical; conditions: PBS pH 7.4, 0.1% DMSO, dye 1 μM, 508 nm excitation; mean±S.D.
Protocol: Singlet oxygen was detected by measuring ^1O2 light emission near 1,270 nm by laser irradiation using a near infrared emission spectrometer (Fluorolog-3, Horiba, Japan). A dye was dissolved in phosphate buffered saline (PBS) containing 0.1% DMSO as a co-solvent and irradiation was performed with light at a wavelength of 508 nm. In order to calculate a ^1O2 quantum yield, the light emission signal was integrated for each wavelength for 7 seconds. A singlet oxygen generation quantum yield was calculated using Rose bengal (0.75) (DeRosa, M. C. & Crutchley, R. J. Photosensitized singlet oxygen and its applications. Coordination Chemistry Reviews 233-234, 351-371, doi:10.1016/S0010-8545(02)00034-6 (2002)) in PBS as a reference.
Whether HMRIef had photosensitizing ability was examined. In the examination, the singlet oxygen generation ability was evaluated by the light emission intensity at […] under light irradiation conditions using the property that singlet oxygen (^1O2) generated by energy transfer from the photoexcited probe to oxygen molecules emits near-infrared light having a peak top near 1,270 nm.
The right view of FIG. 6 illustrates the light emission spectrum of ^1O2 by 508 nm laser excitation. The dashed line was taken as the background. The spectra were measured in PBS with pH 7.4 containing 0.1% DMSO as a co-solvent (dye concentration: 1 μM). […]

[3] = in PBS, used as reference; cited from earlier work

| fluorescence quantum yield (Φfl) [1] | singlet oxygen generation quantum yield [2] | SMILES | singlet oxygen generation quantum yield (reference value) [3] |
| --- | --- | --- | --- |
| 0.78 | 0.05±0.14 | O=c1ccc2c(-c3ccccc3CO)c3ccc(NCC(F)(F)F)cc3oc-2c1 [HMRef] |  |
|  |  | O=C([O-])c1c(Cl)c(Cl)c(Cl)c(Cl)c1-c1c2cc(I)c(=O)c(I)c-2oc2c(I)c([O-])c(I)cc12.[Na+].[Na+] [Rose bengal] | 0.75 |
